SMILES strings stand for the structures.

Test [1] concerns HL60 cells. Put plainly: On-chip ATP-dependent calcium uptake in docked HL60 cells (Fluo-3 fluorescence, concentration gradient). The class given is cell-based. How it is done:
A practical embodiment of the present invention will now be described with reference to a typical experiment of the type for which the present invention is particularly suitable. In particular, in the following example an embodiment of the invention will be used to calculate the threshold ATP concentration that induces calcium uptake in HL60 mammalian cells. In this example HL60 cells (leukemia, promyelocytic) were suspended in 0.5 ml fresh RPMI 1640 with Pluronic F-127 (1% w/v final) and Fluo3-AM (2 micro molar final). After 30 minutes of incubation at room temperature, cells were re-suspended in (Hank's balanced salt solution) HBSS before loading into the apparatus. The example was carried out with an apparatus as shown in FIG. 1 and manufactured as described above. Before use, the etched quartz plate and a PDMS cover were touch-bonded and irradiated with UV light for 10 minutes in a bio-safety cabinet. After filling up micro-channels with buffer by capillary action, the apparatus was securely mounted on the stage of confocal microscope. Introduction of various fluids was implemented by using a 2-20 […] auto-pipette (HLT pipette-mate). An Axiovert 100M confocal microscope (Carl Zeiss) was used for data acquisition. Profiling data analysis mode was employed to present PMT response along a specific line in the apparatus. All fluorophores were excited by Argon (488 nm) laser. An emission filter 505-530 nm was used for Fluo-3 and AO while a 560 nm (long-pass) filter was used for ethidium bromide (EB) study. Scanning parameters were kept identical throughout all experiments for a particular fluorophore. Mammalian HL60 cells uptake extracellular calcium ions when the buffer ATP concentration is beyond a particular level. The minimum ATP concentration required to induce calcium uptake is referred as the threshold concentration. In this example of the use of an embodiment of the invention, cell docking and analyte concentration gradient were combined to determine the threshold concentration of ATP-dependent calcium uptake. The fluorescence images of the microchip under different conditions are shown in FIG. 6, with about 80 docked cells along the dam. In the “control” image and intensity measurement, the background cellular signal was due to the presence of intracellular calcium in HL60 cells. When an ATP solution (2 μM) was loaded into the CW/A vial, the cellular signal intensity was increased by 3-fold in the first zone (A to B) as compared to other zones (FIGS. 6 & 7, 2 μM images). The ATP threshold concentration can therefore be visualized as being between points B and C. After washing with buffer, the same batch of docked HL60 cells were exposed to higher ATP concentrations. Using the same LLP, the threshold concentration range shifted downstream with increasing analyte concentrations. As shown in FIGS. 6 & 7, with 5 μM ATP loaded into the apparatus, the cellular fluorescence intensity-in the first (A to B) and second (C to D) zones were enhanced. The threshold concentration range was shifted to the zone between points D & E. Repeating this process with 10 μM ATP, the Ca-related fluorescence in all cells in all zones were excited, (the signal intensity at the first zone was relatively weak due to desensitization from multiple ATP stimulations.). […] Using this equation, a relationship between liquid levels H and flow quantity Q can be derived: H=RQ+KQ2 (2) where parameters R and K depends on the geometrical profile of the channels. […]

Test [2] concerns HL60 cells. Put plainly: ATP threshold concentration by conventional fluorescence measurements (13 serial dilution experiments). The settings on record: 13 individual serial dilution experiments, FIG. 8. Format: cell-based. The method, then:
FIG. 8 is a plot of ATP threshold concentration obtained by conventional techniques for comparison purposes, In this example, first of all a viability test was carried out to confirm that after docking a sufficient number of living cells were safely docked, and then a concentration gradient was made visible by a fluorophore. When the presence of a viable number of docked cells, and the creation of a concentration gradient were confirmed, the threshold concentration for calcium uptake was calculated using the apparatus of the invention, and then the results compared with an experiment using conventional serial dilution techniques. The ATP concentration gradient along the dam structure was estimated according to the above computational model. Combining the results obtained in 2 μM and 5 μM ATP stimulations, the threshold concentration was estimated within a range of 0.16±0.02 μM. The threshold concentration was also determined using conventional fluorescence measurements. […] The threshold concentration range was determined to be 0.15-0.19 μM, which is in good agreement with the result obtained using the embodiment of the present invention.

`Nc1ncnc2c1ncn2[C@@H]1O[C@H](COP(=O)(O)OP(=O)(O)OP(=O)(O)O)[C@@H](O)[C@H]1O` [ATP]: the “increase of cellular signal intensity (fold)” value in test [1] (2 μM ATP loaded into CW/A vial, first zone (A to B) compared to other zones) was 3 fold. Also, the cellular fluorescence intensity result in test [1] (5 μM ATP loaded, first (A to B) and second (C to D) zones) is on record as “enhanced”. The Ca-related fluorescence entry in test [1] (10 μM ATP loaded, all cells in all zones) is “excited”. Moreover, the “threshold concentration of ATP-dependent calcium uptake” value in test [1] (on-chip, HL60 cells, estimated from computational gradient model combining 2 μM and 5 μM ATP stimulations) was 0.16 ± 0.02 µM. Also, the “threshold ATP concentration” value in test [1] (on-chip, HL60 cells, indicated by experimental results before gradient estimation) is reported as “below 2 μM”. In test [2], this compound yielded a threshold concentration range of 0.15 to 0.19 µM.

(Values after US7560267B2, “Apparatus and methods for on-chip monitoring of cellular reactions” (City University of Hong Kong, priority 2002, dated 2009).)
